In PubChem BioAssay (NCI) one finds TGI and GI50 data, which are given here for 18 compounds.

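Interpolation was linear, between the two tested concentrations surrounding the appropriate level; five concentrations were tested over 48 hours in 96-well plates. Abbreviation: GI50, concentration required for 50% inhibition of growth. TGI is the concentration that stops growth completely.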 Bounds are passed on as bounds.

Common to all, as to assay: NCI tumour cell line growth inhibition, 48 h
Experiment [1] has as its system SK-MEL-5 melanoma.
In experiment [2] the test system is COLO 205 colon.
Experiment [3] has as its system A498 renal.
The subject of experiment [4] is U251 CNS.
In experiment [5] the test system is CCRF-CEM leukemia.
The subject of experiment [6] is NCI/ADR-RES ovarian.
Experiment [7] has as its system MOLT-4 leukemia.
Experiment [8] relates to CAKI-1 renal.
Experiment [9] deals with HL-60(TB) leukemia.
Experiment [10] concerns M14 melanoma.
Experiment [11] concerns SF-295 CNS.
Experiment [12] has as its system MDA-MB-231 breast.

In the case of `Cc1ncc([N+](=O)[O-])n1CCNC(=O)Cn1c([N+](=O)[O-])cnc1C`, the TGI in experiment [1], in experiment [2], in [3], in experiment [4], in experiment [5] and in [6] was more than 100 µM in each case. Moreover, the TGI in experiment [7], in experiment [8], in experiment [9], in [10], in experiment [11] and in [12] was more than 100 µM in each case.

Turning to `CC(=O)c1cc(C)n2c1CS[C@@H]2c1ccccc1`, the TGI was more than 100 µM in experiment [1]; 29 µM in experiment [2]; more than 100 µM in experiment [3]; 92.7 µM in [4]; 60.9 µM in experiment [5]; more than 100 µM in experiment [6]. In addition, the TGI was 96.5 µM in [7]; more than 100 µM in [8]; more than 100 µM in experiment [9]; more than 100 µM in experiment [10]; more than 100 µM in experiment [11]; more than 100 µM in experiment [12].

In the case of `NC(=O)c1cccc([C@@H]2O[C@H](CO)[C@@H](O)[C@H]2O)c1`, the TGI is 53.2 µM in [1]; 48.7 µM in experiment [2]; more than 100 µM in [3]; 32.4 µM in experiment [4]; 15.4 µM in [5]; 16.3 µM in [6]. The TGI was 8.45 µM in [7]; more than 69.1 µM in [8]; 10.2 µM in experiment [9]; 12.4 µM in [10]; 28.7 µM in [11]; more than 100 µM in [12].

Regarding `Cc1ccc2c(=O)cc(-c3sc4ccccc4c3C)[nH]c2n1`, the results for the GI50 in experiment [1], in experiment [4] and in experiment [9] were 14.9 µM, 38.7 µM and 18.5 µM, respectively. For the same compound, the TGI was 28.2 µM in [1]; 65.8 µM in experiment [2]; more than 100 µM in experiment [3]; more than 100 µM in [4]; 58.4 µM in experiment [5]; 47.6 µM in experiment [6]. In addition, the TGI in experiment [7] was 69.7 µM; in [8], 53.3 µM; in [9], 42.9 µM; in [10], 51 µM; in experiment [11], 52.1 µM; in experiment [12], more than 100 µM.

With `CC(C)(C)OC(=O)N(CCCCNCc1ccc2ccccc2c1)CCCNCc1ccc2ccccc2c1`, the TGI in [2] stood at 2.72 µM; in experiment [3], 3.47 µM; in experiment [4] it was 3.49 µM; in experiment [5], 2.86 µM; in [6], 3.02 µM; in experiment [7] it was 2.28 µM. In addition, the TGI in experiment [8] was 2.45 µM; in experiment [9] it was 0.507 µM; in [12], 2.28 µM.

`Cc1cccc2c(=O)c3cccc([C@@H](C)C(=O)O)c3oc12`: the TGI in [1], in experiment [2], in experiment [3], in [4], in [5] and in [6] was more than 100 µM each time. Further, the TGI in [7], in experiment [8], in experiment [9], in [10], in [11] and in [12] was more than 100 µM throughout.

In the case of `O=c1ccn(C2OC(CN(O)CCC3C(CO)OC(n4ccc(=O)[nH]c4=O)C3O)C(O)C2O)c(=O)[nH]1` (stereo not given), the TGI in [1], in experiment [2], in [3], in [4], in experiment [5] and in experiment [6] was more than 100 µM throughout. Moreover, the TGI in [7], in experiment [8], in experiment [9], in experiment [10], in experiment [11] and in experiment [12] was more than 100 µM in each case.

With `C/C(=N\Nc1nc2ccccc2s1)c1cc(C)ncn1`, the TGI in experiment [1] was 13 µM; in experiment [2], 4.71 µM; in experiment [3], more than 100 µM; in experiment [4], more than 49.6 µM; in experiment [5] it was 4.2 µM; in [6], 4.91 µM. The TGI in experiment [7] is 4.15 µM; in [8] it was 6.63 µM; in [9], more than 100 µM; in experiment [10], 25.7 µM; in experiment [11], 30.9 µM; in experiment [12] it was 9.47 µM.

With `N#CC(C#N)=Cn1c(=S)[nH]c2ccccc21`, the TGI in experiment [1], in experiment [2], in experiment [3], in [4], in experiment [5] and in experiment [6] was more than 100 µM in each case. Also, the TGI in [7], in [8], in experiment [9], in experiment [10], in [11] and in [12] was more than 100 µM in each case.

As for `COc1cc2c(cc1OC)C(=O)N(NC1=NCCN1)C2=O`, the TGI in experiment [1], in experiment [2], in experiment [3], in experiment [4], in experiment [5] and in [6] was more than 100 µM throughout. Besides, the TGI in [7], in experiment [8], in experiment [9], in experiment [10], in experiment [11] and in [12] was more than 100 µM each time.

Regarding `CC(C)C(NC(=O)C(Cc1ccccc1)NC(=O)[C@H]1CCC[C@H]1NC(=O)C(N)Cc1ccc(O)cc1)C(N)=O` (stereo not given in full), the TGI in experiment [1], in experiment [2], in experiment [3], in experiment [4], in experiment [5] and in experiment [6] was more than 100 µM in each case. The TGI in [7], in experiment [8], in experiment [9], in experiment [10], in experiment [11] and in experiment [12] was more than 100 µM in each case.

For the compound `CCCC[C@H]1CCN2C[C@@H](O)[C@@H](O)[C@H]2[C@@H]1O`, the TGI in experiment [1], in experiment [2], in [3], in experiment [4], in experiment [5] and in [6] was more than 100 µM in each case. The TGI in experiment [7], in experiment [8], in experiment [9], in experiment [10], in experiment [11] and in [12] was more than 100 µM throughout.

Consider `S=c1[nH]nc(NNc2ccccc2)n1Nc1ccccc1`, for which the TGI in experiment [1] is more than 100 µM; in [2], more than 37.6 µM; in experiment [3], more than 100 µM; in [4] it was more than 83.9 µM; in [5] it was 42 µM; in experiment [6], more than 100 µM. Also, the TGI was more than 100 µM in experiment [8]; 57.2 µM in experiment [9]; more than 100 µM in experiment [10]; more than 100 µM in experiment [11]; more than 100 µM in [12].

As to `O=c1[nH]n(Cc2ccccc2Cl)c2ccccc12`, the TGI in experiment [1], in experiment [2], in experiment [3], in [4], in experiment [5] and in [6] was more than 100 µM in each case. For the same compound, the TGI in experiment [7], in experiment [8], in experiment [9], in experiment [10] and in experiment [12] was more than 100 µM each time.

Consider `OC(C/C=N/Nc1ccccc1)(C(F)(F)Cl)C(F)(F)Cl`, for which the TGI in [1], in experiment [2], in experiment [3], in [4], in experiment [5] and in [6] was more than 10 µM in each case. Also, the TGI in [8], in experiment [9], in [10], in [11] and in [12] was more than 10 µM throughout.

As for `COP(=O)(OC)/C(=C\c1cn(C(c2ccccc2)(c2ccccc2)c2ccccc2)cn1)NC(C)=O`, the TGI in [2], in experiment [3], in [4], in [5], in experiment [6] and in experiment [7] was more than 100 µM each time. Further, the TGI in experiment [8], in [9], in [10], in [11] and in [12] was more than 100 µM each time.

Turning to `C[C@]12CC[C@H](O)CC1=CC[C@@H]1C2CC[C@]2(C)Nc3c(cnn3-c3ccc(F)cc3)CC12` (stereo not given in full), the TGI was more than 100 µM in [1]; more than 47.6 µM in experiment [3]; more than 100 µM in [4]; more than 100 µM in experiment [5]; more than 100 µM in [6]; more than 100 µM in experiment [7]. The TGI in experiment [8] is more than 100 µM; in experiment [9] it was more than 100 µM; in experiment [10], more than 100 µM; in [11], 6.82 µM; in [12], more than 100 µM.

In the case of `CCc1n[nH]c(=O)n1CCO`, the TGI in [1], in experiment [2], in [3], in experiment [4], in experiment [6] and in [7] was more than 100 µM in each case. In addition, the TGI in experiment [8], in experiment [9], in experiment [10], in experiment [11] and in experiment [12] was more than 100 µM in each case.
